Assay results taken from the supplement of paper PMC10307832.

Assays:
Assay in all cases: relative viability (nuclei count vs DMSO), 5 days (fraction); higher = more cells survive
XMD8-85 + Lapatinib = compound: CN1CCN(CC1)C2=CC(=C(C=C2)NC3=NC=C4C(=N3)N(C5=CC=CC=C5C(=O)N4C)C)OC [XMD8-85] + CS(=O)(=O)CCNCc1ccc(-c2ccc3ncnc(Nc4ccc(OCc5cccc(F)c5)c(Cl)c4)c3c2)o1 [Lapatinib] (partner 2 µM)
How it was run: (§1)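 Lung cancer cell lines, seeded in 1536-well plates, were treated the following day by pin tool with a single drug or with five library-drug doses (not always all listed) in √10 steps on top of a fixed anchor-drug dose. Cells were fixed and nuclei stained in one step after 5 days, and nuclei were counted. Relative viability is the nuclei count for treated wells divided by that for vehicle wells, reported as medians of duplicate plates.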

XMD8-85 + Pictilisib = compound: CN1CCN(CC1)C2=CC(=C(C=C2)NC3=NC=C4C(=N3)N(C5=CC=CC=C5C(=O)N4C)C)OC [XMD8-85] + CS(=O)(=O)N1CCN(Cc2cc3nc(-c4cccc5[nH]ncc45)nc(N4CCOCC4)c3s2)CC1 [Pictilisib] (partner 1 µM)
How it was run: as §1

4EGI-1 + Lapatinib = compound: O=C(O)C(Cc1ccccc1[N+](=O)[O-])=NNc1nc(-c2ccc(Cl)c(Cl)c2)cs1 (mixture of isomers) [4EGI-1] + CS(=O)(=O)CCNCc1ccc(-c2ccc3ncnc(Nc4ccc(OCc5cccc(F)c5)c(Cl)c4)c3c2)o1 [Lapatinib] (partner 2 µM)
How it was run: as §1

4EGI-1 + Alpelisib = compound: O=C(O)C(Cc1ccccc1[N+](=O)[O-])=NNc1nc(-c2ccc(Cl)c(Cl)c2)cs1 (mixture of isomers) [4EGI-1] + Cc1nc(NC(=O)N2CCC[C@H]2C(N)=O)sc1-c1ccnc(C(C)(C)C(F)(F)F)c1 [Alpelisib] (partner 2 µM)
How it was run: as §1

Cell Line	relative viability (XMD8-85 + Lapatinib; first compound 0.08 µM)	relative viability (XMD8-85 + Lapatinib; first compound 0.253 µM)	relative viability (XMD8-85 + Lapatinib; first compound 0.8 µM)	relative viability (XMD8-85 + Lapatinib; first compound 2.53 µM)	relative viability (XMD8-85 + Lapatinib; first compound 8 µM)	relative viability (XMD8-85 + Pictilisib; first compound 0.08 µM)	relative viability (XMD8-85 + Pictilisib; first compound 0.253 µM)	relative viability (XMD8-85 + Pictilisib; first compound 0.8 µM)	relative viability (XMD8-85 + Pictilisib; first compound 2.53 µM)	relative viability (4EGI-1 + Lapatinib; first compound 0.5 µM)	relative viability (4EGI-1 + Lapatinib; first compound 1.581 µM)	relative viability (4EGI-1 + Lapatinib; first compound 5 µM)	relative viability (4EGI-1 + Lapatinib; first compound 15.81 µM)	relative viability (4EGI-1 + Lapatinib; first compound 50 µM)	relative viability (4EGI-1 + Alpelisib; first compound 0.5 µM)	relative viability (4EGI-1 + Alpelisib; first compound 1.581 µM)	relative viability (4EGI-1 + Alpelisib; first compound 5 µM)	relative viability (4EGI-1 + Alpelisib; first compound 15.81 µM)	relative viability (4EGI-1 + Alpelisib; first compound 50 µM)	relative viability (XMD8-85 + Pictilisib; first compound 8 µM)
ABC-1	1.32	1.18	0.942	1.21	1.11	0.628	0.614	0.942	0.746	1.06	1.46	1.24	1.17	1.16	1.07	1.03	1.02	0.74	0.405	–
HCC-78	0.84	–	0.751	0.565	0.223	0.267	0.22	0.228	0.206	0.842	0.551	0.752	0.788	0.947	0.439	0.315	0.319	0.32	0.218	0.192
CAL-12T	0.626	–	0.679	0.678	0.604	0.396	0.541	0.393	0.395	–	–	0.634	0.701	0.529	1.24	–	1.28	1.25	1.15	0.321
NCI-H3122	1.12	1.01	1.04	1.09	0.965	0.687	0.573	0.649	0.646	1.05	0.922	1.02	0.955	0.578	0.866	0.718	0.792	0.775	0.646	0.611
LOU-NH91	–	0.736	0.76	0.761	0.57	0.52	0.566	0.526	0.516	0.807	–	0.822	0.787	0.552	0.814	–	0.726	0.466	0.538	0.471
NCI-H727	0.627	0.792	–	0.731	0.543	0.373	0.387	0.342	0.433	0.96	0.712	0.96	0.724	0.391	0.676	0.54	0.625	0.478	0.366	0.327
NCI-H2009	0.934	0.931	1.01	0.841	0.456	0.753	0.722	0.892	0.653	1.06	0.879	0.962	0.744	0.177	1.16	1.14	1.25	1.07	0.585	0.364
NCI-H23	0.949	1.05	1.09	1.08	0.969	0.486	0.508	0.524	0.523	1.24	–	1.09	1.13	0.43	0.905	–	0.915	0.794	0.611	0.426
NCI-H2228	0.827	0.93	1.14	–	0.549	0.469	0.353	0.202	0.363	1.36	1.1	1.03	0.803	0.172	0.664	0.672	0.82	0.61	0.177	0.247
